Reference: US20120045393A1 (priority 2009, published 2012)
Non-standard residues stand in square brackets, D forms with d. Residues, ends and D or L forms follow the SMILES beside them. *: point of attachment. DOTA = O=C(O)CN1CCN(CC(=O)O)CCN(CC(=O)*)CCN(CC(=O)O)CC1; Bpa = N[C@@H](Cc1ccc(C(=O)c2ccccc2)cc1)C(=O)O; Phe(4-Cl) = N[C@@H](Cc1ccc(Cl)cc1)C(=O)O; d2Nal = N[C@H](Cc1ccc2ccccc2c1)C(=O)O; azaGly = NNC(=O)O; Sar = CNCC(=O)O

tested on: LHRH binding sites on human ovarian cancer cells (EFO-27); settings: not given
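Further: Cell-associated radioactivity on confluent EFO-27 monolayers in 96-well plates, measured by microplate scintillation counting.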

Row | Structure (SMILES) | EC50 [nM]
1 | N=C(N)NCCC[C@H](NC(=O)[C@@H](Cc1ccc2ccccc2c1)NC(=O)CN1CCN(CC(=O)O)CCN(CC(=O)O)CCN(CC(=O)O)CC1)C(=O)N[C@@H](Cc1c[nH]c2ccccc12)C(=O)N[C@@H](CO)C(=O)N[C@@H](Cc1c[nH]cn1)C(=O)N[C@H](CCCNC(=N)N)C(=O)N[C@@H](Cc1c[nH]c2ccccc12)C(=O)N[C@@H](Cc1ccc(C(=O)c2ccccc2)cc1)C(=O)N1CCC[C@H]1C(=O)NCCCO [compound 2982] | 1130
2 | CNCC(=O)N[C@@H](CCCNC(=N)N)C(=O)N[C@@H](Cc1c[nH]c2ccccc12)C(=O)N[C@@H](CO)C(=O)N[C@@H](Cc1c[nH]cn1)C(=O)N[C@H](CCCNC(=N)N)C(=O)N[C@@H](Cc1c[nH]c2ccccc12)C(=O)N[C@@H](Cc1ccc(C(=O)c2ccccc2)cc1)C(=O)N1CCC[C@H]1C(=O)NCCCNC(=O)CN1CCN(CC(=O)O)CCN(CC(=O)O)CCN(CC(=O)O)CC1 [compound 3076] | 750 ± 40
3 | CNCC(=O)N[C@@H](CCCNC(=N)N)C(=O)N[C@@H](Cc1c[nH]c2ccccc12)C(=O)N[C@@H](CO)C(=O)N[C@@H](Cc1c[nH]cn1)C(=O)N[C@H](CCCNC(=N)N)C(=O)N[C@@H](Cc1c[nH]c2ccccc12)C(=O)N[C@@H](Cc1ccc(C(=O)c2ccccc2)cc1)C(=O)N1CCC[C@H]1C(=O)NCCOCCNC(=O)CN1CCN(CC(=O)O)CCN(CC(=O)O)CCN(CC(=O)O)CC1 [compound 3039] | 280 ± 30
4 | N=C(N)NCCC[C@H](NC(=O)[C@@H](Cc1ccc2ccccc2c1)NC(=O)CN1CCN(CC(=O)O)CCN(CC(=O)O)CCN(CC(=O)O)CC1)C(=O)N[C@@H](Cc1c[nH]c2ccccc12)C(=O)N[C@@H](CO)C(=O)N[C@@H](Cc1c[nH]cn1)C(=O)N[C@H](CCCNC(=N)N)C(=O)N[C@@H](Cc1c[nH]c2ccccc12)C(=O)N[C@@H](Cc1ccc(C(=O)c2ccccc2)cc1)C(=O)O [compound 3064] ({DOTA}-[d2Nal]RWSH[dR]W[Bpa]-OH; N-terminus assumed) | 670
5 | N=C(N)NCCC[C@H](NC(=O)[C@H](N)Cc1ccc2ccccc2c1)C(=O)N[C@@H](Cc1c[nH]c2ccccc12)C(=O)N[C@@H](CO)C(=O)N[C@@H](Cc1c[nH]cn1)C(=O)N[C@H](CCCNC(=N)N)C(=O)N[C@@H](Cc1c[nH]c2ccccc12)C(=O)N[C@@H](Cc1ccc(C(=O)c2ccccc2)cc1)C(=O)N1CCC[C@H]1C(=O)NCCCCNC(=O)CN1CCN(CC(=O)O)CCN(CC(=O)O)CCN(CC(=O)O)CC1 [compound 3042] | 200
6 | CC(C)C[C@H](NC(=O)[C@H](Cc1c[nH]c2ccccc12)NC(=O)[C@H](CCCNC(=N)N)NC(=O)[C@@H](Cc1ccc2ccccc2c1)NC(=O)CN1CCN(CC(=O)O)CCN(CC(=O)O)CCN(CC(=O)O)CC1)C(=O)N[C@@H](Cc1c[nH]cn1)C(=O)N[C@H](CCCNC(=N)N)C(=O)N[C@@H](Cc1c[nH]c2ccccc12)C(=O)N[C@@H](Cc1ccc(C(=O)c2ccccc2)cc1)C(=O)N1CCC[C@H]1C(=O)NNC(N)=O [compound 3113] ({DOTA}-[d2Nal]RWLH[dR]W[Bpa]P[azaGly]-NH2) | 1130
7 | N=C(N)NCCC[C@H](NC(=O)[C@@H](Cc1ccc2ccccc2c1)NC(=O)CN1CCN(CC(=O)O)CCN(CC(=O)O)CCN(CC(=O)O)CC1)C(=O)N[C@@H](Cc1c[nH]c2ccccc12)C(=O)N[C@@H](CO)C(=O)N[C@@H](Cc1c[nH]cn1)C(=O)N[C@H](CCCNC(=N)N)C(=O)N[C@@H](Cc1c[nH]c2ccccc12)C(=O)N[C@@H](Cc1ccc(C(=O)c2ccccc2)cc1)C(=O)N1C[C@H](O)C[C@H]1C(=O)NNC(N)=O [compound 2952] | 280
8 | CC(C)C[C@H](NC(=O)[C@H](CCCNC(=N)N)NC(=O)[C@@H](Cc1ccc2ccccc2c1)NC(=O)CN1CCN(CC(=O)O)CCN(CC(=O)O)CCN(CC(=O)O)CC1)C(=O)N[C@@H](CO)C(=O)N[C@@H](Cc1c[nH]cn1)C(=O)N[C@H](CCCNC(=N)N)C(=O)N[C@@H](Cc1c[nH]c2ccccc12)C(=O)N[C@@H](Cc1ccc(C(=O)c2ccccc2)cc1)C(=O)N1CCC[C@H]1C(=O)NNC(N)=O [compound 3108] ({DOTA}-[d2Nal]RLSH[dR]W[Bpa]P[azaGly]-NH2) | 560

Second part, the molecule after the results:

Row | EC50 [nM] | Structure (SMILES)
9 | ≤ 200 | N=C(N)NCCC[C@H](NC(=O)[C@H](N)Cc1ccc2ccccc2c1)C(=O)N[C@@H](Cc1c[nH]c2ccccc12)C(=O)N[C@@H](CO)C(=O)N[C@@H](Cc1c[nH]cn1)C(=O)N[C@H](CCCNC(=N)N)C(=O)N[C@@H](Cc1c[nH]c2ccccc12)C(=O)N[C@@H](Cc1ccc(C(=O)c2ccccc2)cc1)C(=O)N1CCC[C@H]1C(=O)NCCOCCNC(=O)CN1CCN(CC(=O)O)CCN(CC(=O)O)CCN(CC(=O)O)CC1 [BRU-2991]
10 | 1380 | CC(=O)N[C@@H](Cc1ccc(CNC(=O)CN2CCN(CC(=O)O)CCN(CC(=O)O)CCN(CC(=O)O)CC2)cc1)C(=O)N[C@@H](Cc1c[nH]cn1)C(=O)N[C@@H](Cc1c[nH]c2ccccc12)C(=O)N[C@@H](CO)C(=O)N[C@@H](Cc1c[nH]cn1)C(=O)N[C@H](CCCNC(=N)N)C(=O)N[C@@H](Cc1c[nH]c2ccccc12)C(=O)N[C@@H](Cc1ccc(C(=O)c2ccccc2)cc1)C(=O)N1CCC[C@H]1C(=O)NNC(N)=O [BRU-2881]
11 | 1900 | CN(CC(=O)N[C@@H](Cc1c[nH]cn1)C(=O)N[C@@H](Cc1c[nH]c2ccccc12)C(=O)N[C@@H](CO)C(=O)N[C@@H](Cc1c[nH]cn1)C(=O)N[C@H](CCCNC(=N)N)C(=O)N[C@@H](Cc1c[nH]c2ccccc12)C(=O)N[C@@H](Cc1ccc(C(=NO)c2ccccc2)cc1)C(=O)N1CCC[C@H]1C(=O)NNC(N)=O)C(=O)CN1CCN(CC(=O)O)CCN(CC(=O)O)CCN(CC(=O)O)CC1 [BRU-2907]
12 | 590 to 1000 | CNCC(=O)N[C@@H](Cc1c[nH]cn1)C(=O)N[C@@H](Cc1c[nH]c2ccccc12)C(=O)N[C@@H](CO)C(=O)N[C@@H](Cc1c[nH]cn1)C(=O)N[C@H](CCCNC(=N)N)C(=O)N[C@@H](Cc1c[nH]c2ccccc12)C(=O)N[C@@H](Cc1ccc(C(=O)c2ccccc2)cc1)C(=O)N1CCC[C@H]1C(=O)NCCNC(=O)CN1CCN(CC(=O)O)CCN(CC(=O)O)CCN(CC(=O)O)CC1 [BRU-3079]
13 | 630 | CN(CC(=O)N[C@@H](Cc1ccc(Cl)cc1)C(=O)N[C@@H](Cc1c[nH]c2ccccc12)C(=O)N[C@@H](CO)C(=O)N[C@@H](Cc1c[nH]cn1)C(=O)N[C@H](CCCNC(=N)N)C(=O)N[C@@H](Cc1c[nH]c2ccccc12)C(=O)N[C@@H](Cc1ccc(C(=O)c2ccccc2)cc1)C(=O)N1CCC[C@H]1C(=O)NNC(N)=O)C(=O)CN1CCN(CC(=O)O)CCN(CC(=O)O)CCN(CC(=O)O)CC1 [BRU-2719] ({DOTA}-[Sar][Phe(4-Cl)]WSH[dR]W[Bpa]P[azaGly]-NH2)
14 | 720 | N=C(N)NCCC[C@H](NC(=O)[C@@H](Cc1ccc2ccccc2c1)NC(=O)CN1CCN(CC(=O)O)CCN(CC(=O)O)CCN(CC(=O)O)CC1)C(=O)N[C@@H](Cc1c[nH]c2ccccc12)C(=O)N[C@@H](CO)C(=O)N[C@@H](Cc1c[nH]cn1)C(=O)N[C@H](CCCNC(=N)N)C(=O)N[C@@H](Cc1c[nH]c2ccccc12)C(=O)N[C@@H](Cc1ccc(C(=O)c2ccccc2)cc1)C(=O)O [BRU-3064, DO3A10CM-Dna12-Arg-Trp-Ser-His-Darg-Trp-Bpa4-OH] ({DOTA}-[d2Nal]RWSH[dR]W[Bpa]-OH)
15 | 230 to 500 | CC(=O)N[C@H](Cc1ccc2ccccc2c1)C(=O)N[C@@H](CCCNC(=N)N)C(=O)N[C@@H](Cc1c[nH]c2ccccc12)C(=O)N[C@@H](CO)C(=O)N[C@@H](Cc1c[nH]cn1)C(=O)N[C@H](CCCNC(=N)N)C(=O)N[C@@H](Cc1c[nH]c2ccccc12)C(=O)N[C@@H](Cc1ccc(C(=O)c2ccccc2)cc1)C(=O)N1CCC[C@H]1C(=O)NCCOCCNC(=O)CN1CCN(CC(=O)O)CCN(CC(=O)O)CCN(CC(=O)O)CC1 [BRU-2992]
16 | > 30000 | N=C(N)NCCC[C@H](NC(=O)[C@H](N)Cc1ccc2ccccc2c1)C(=O)N[C@@H](Cc1c[nH]c2ccccc12)C(=O)N[C@@H](CO)C(=O)N[C@@H](Cc1c[nH]cn1)C(=O)N[C@H](CCCNC(=N)N)C(=O)N[C@@H](Cc1c[nH]c2ccccc12)C(=O)N[C@@H](Cc1ccc(C(=O)c2ccccc2)cc1)C(=O)N1CCC[C@H]1C(=O)NCC(=O)NCCCCNC(=O)CN1CCN(CC(=O)O)CCN(CC(=O)O)CCN(CC(=O)O)CC1 [BRU-2990]
17 | 8710 | CN(CC(=O)N[C@@H](Cc1c[nH]cn1)C(=O)N[C@@H](Cc1c[nH]c2ccccc12)C(=O)N[C@@H](CO)C(=O)N[C@@H](Cc1c[nH]cn1)C(=O)N[C@H](CCCNC(=N)N)C(=O)N[C@@H](Cc1c[nH]c2ccccc12)C(=O)N[C@H](C(=O)N1CCC[C@H]1C(=O)NNC(N)=O)C1Cc2ccccc2C1)C(=O)CN1CCN(CC(=O)O)CCN(CC(=O)O)CCN(CC(=O)O)CC1 [BRU-2765]

same assay, conditions: EFO-27 cells, competition with [125I-Tyr8]BRU-2477, 90 min

Row | Structure (SMILES) | EC50 [nM]
18 | N=C(N)NCCC[C@H](NC(=O)[C@@H](Cc1ccc2ccccc2c1)NC(=O)CN1CCN(CC(=O)O)CCN(CC(=O)O)CCN(CC(=O)O)CC1)C(=O)N[C@@H](Cc1c[nH]c2ccccc12)C(=O)N[C@@H](CO)C(=O)N[C@@H](Cc1c[nH]cn1)C(=O)N[C@H](CCCNC(=N)N)C(=O)N[C@@H](Cc1c[nH]c2ccccc12)C(=O)N[C@@H](Cc1ccc(C(=O)c2ccccc2)cc1)C(=O)N1CCC[C@H]1C(=O)NCC(=O)N[C@@H](CCC(N)=O)C(N)=O [compound 2971] ({DOTA}-[d2Nal]RWSH[dR]W[Bpa]PGQ-NH2) | 490
19 | CN(CC(=O)N[C@@H](Cc1c[nH]cn1)C(=O)N[C@@H](Cc1c[nH]c2ccccc12)C(=O)N[C@@H](CO)C(=O)N[C@@H](Cc1c[nH]cn1)C(=O)N[C@H](CCCNC(=N)N)C(=O)N[C@@H](Cc1c[nH]c2ccccc12)C(=O)N[C@@H](Cc1ccc(C(=O)c2ccccc2)cc1)C(=O)N1CCC[C@H]1C(=O)NNC(N)=O)C(=O)CN1CCN(CC(=O)O)CCN(CC(=O)O)CCN(CC(=O)O)CC1 [BRU-2443] | 950

same assay, conditions: Table 5: modifications of amino acids at positions 1 and 2; in vitro binding on EFO-27 cells

Row | Structure (SMILES) | EC50 [nM]
20 | N=C(N)NCCC[C@@H](NC(=O)[C@H](Cc1c[nH]cn1)NC(=O)[C@H](CO)NC(=O)[C@H](Cc1c[nH]c2ccccc12)NC(=O)[C@H](Cc1c[nH]cn1)NC(=O)CNC(=O)CNC(=O)CN1CCN(CC(=O)O)CCN(CC(=O)O)CCN(CC(=O)O)CC1)C(=O)N[C@@H](Cc1c[nH]c2ccccc12)C(=O)N[C@@H](Cc1ccc(C(=O)c2ccccc2)cc1)C(=O)N1CCC[C@H]1C(=O)NNC(N)=O [BRU-2795] | 1370
21 | CN(CC(=O)N[C@@H](Cc1c[nH]cn1)C(=O)N[C@@H](Cc1c[nH]c2ccccc12)C(=O)N[C@@H](CO)C(=O)N[C@@H](Cc1c[nH]cn1)C(=O)N[C@H](CCCNC(=N)N)C(=O)N[C@@H](Cc1c[nH]c2ccccc12)C(=O)N[C@@H](Cc1ccc(C(=O)c2ccccc2)cc1)C(=O)N1CCC[C@H]1C(=O)NNC(N)=O)C(=O)CNC(=O)CN1CCN(CC(=O)O)CCN(CC(=O)O)CCN(CC(=O)O)CC1 [BRU-2717] | 1550
